Reference: patent publication EP1027361B1, “6,11-BRIDGED ERYTHROMYCIN DERIVATIVES” (Abbott Laboratories, priority 1997, dated 1999)

Assays:
Assay in all cases: in vitro antibacterial activity, agar dilution MIC
Format in all cases: cell-based
[1] = test system: Staphylococcus aureus ATCC 6538P; set-up: unit not given here; conditions: organism code AA, BHI agar, 35-37 °C, 20 to 24 hours
Method: (§1) Erythromycin A was used for this purpose.
(§2) After incubation, each plate was visually inspected.

[2] = test system: Streptococcus Pheumoniae ATCC6303; set-up: unit not given here; conditions: organism code XX, BHI agar, 35-37 °C, 20 to 24 hours
Method: as §1, §2

[3] = test system: Streptococcus bovis A-5169; set-up: unit not given here; conditions: organism code JJ, BHI agar, 35-37 °C, 20 to 24 hours
Method: as §1, §2

[4] = test system: Streptococcus agalactiae CMX 508; set-up: unit not given here; conditions: organism code KK, BHI agar, 35-37 °C, 20 to 24 hours
Method: as §1, §2

[5] = test system: Streptococcus pyogenes EES61; set-up: unit not given here; conditions: organism code LL, BHI agar, 35-37 °C, 20 to 24 hours
Method: as §1, §2

[6] = test system: Staphylococcus aureus A5177; set-up: unit not given here; conditions: organism code BB, BHI agar, 35-37 °C, 20 to 24 hours
Method: (§3) Representative compounds of the present invention were assayed in vitro for antibacterial activity as follows: Twelve petri dishes containing successive aqueous dilutions of the test compound mixed with 10 mL of sterilized Brain Heart Infusion (BHI) agar (Difco 0418-01-5) were prepared. Each plate was inoculated with 1:100 (or 1:10 for slow-growing strains, such as Micrococcus and Streptococcus) dilutions of up to 32 different microorganisms, using a Steers replicator block. […] In addition, a control plate, using BHI agar containing no test compound, was prepared and incubated at the beginning and end of each test
(§4) An additional plate containing a compound having known susceptibility patterns for the organisms being tested and belonging to the same antibiotic class as the test compound was also prepared and incubated as a further control, as well as to provide test-to-test comparability.
(§5) After incubation, each plate was visually inspected. The minimum inhibitory concentration (MIC) was defined as the lowest concentration of drug yielding no growth, a slight haze, or sparsely isolated colonies on the inoculum spot as compared to the growth control.

[7] = test system: Mycobacterium smegmatis ATCC 114; set-up: unit not given here; conditions: organism code UU, BHI agar, 35-37 °C, 20 to 24 hours
Method: as §3, §4, §5

[8] = test system: Streptococcus pyogenes PIU 2548; conditions: organism code NN, BHI agar, 35-37 °C, 20 to 24 hours
Method: as §3, §4, §5

[9] = test system: Streptococcus Pheumoniae 5979; conditions: organism code ZZ, BHI agar, 35-37 °C, 20 to 24 hours
Method: as §3, §4, §5

Escherichia coli DC-2 = conditions: organism code SS, BHI agar, 35-37 °C, 20 to 24 hours
Method: as §3, §4, §5

[10] = test system: Staphylococcus aureus 1775; conditions: organism code GG, BHI agar, 35-37 °C, 20 to 24 hours
Method: as §3, §4, §5

[11] = test system: Streptococcus pyogenes 930; conditions: organism code MM, BHI agar, 35-37 °C, 20 to 24 hours
Method: as §3, §4, §5

Candida albicans CCH 442 = conditions: organism code TT, BHI agar, 35-37 °C, 20 to 24 hours
Method: as §3, §4, §5

[12] = test system: Staphylococcus aureus A-5278; conditions: organism code CC, BHI agar, 35-37 °C, 20 to 24 hours
Method: as §3, §4, §5

[13] = test system: Staphylococcus aureus CMX 553; conditions: organism code FF, BHI agar, 35-37 °C, 20 to 24 hours
Method: as §1, §2

[14] = test system: Staphylococcus aureus NCTC10649M; conditions: organism code EE, BHI agar, 35-37 °C, 20 to 24 hours
Method: as §1, §2

[15] = test system: Streptococcus Pheumoniae GYR 1171; conditions: organism code YY, BHI agar, 35-37 °C, 20 to 24 hours
Method: as §1, §2

[16] = test system: Micrococcus luteus ATCC 9341; conditions: organism code OO, BHI agar, 35-37 °C, 20 to 24 hours
Method: as §1, §2

Escherichia coli SS = conditions: organism code RR, BHI agar, 35-37 °C, 20 to 24 hours
Method: as §1, §2

[17] = test system: Staphylococcus aureus CMX 642A; conditions: organism code DD, BHI agar, 35-37 °C, 20 to 24 hours
Method: as §1, §2

Escherichia coli JUHL = conditions: organism code QQ, BHI agar, 35-37 °C, 20 to 24 hours
Method: as §1, §2

[18] = test system: Nocardia Asteroides ATCC9970; conditions: organism code VV, BHI agar, 35-37 °C, 20 to 24 hours
Method: as §1, §2

[19] = test system: Micrococcus luteus ATCC 4698; conditions: organism code PP, BHI agar, 35-37 °C, 20 to 24 hours
Method: as §1, §2

[20] = test system: Staphylococcus epidermidis 3519; conditions: organism code HH, BHI agar, 35-37 °C, 20 to 24 hours
Method: as §1, §2

[21] = test system: Haemophilis Influenzae DILL AMP R; conditions: organism code WW, BHI agar, 35-37 °C, 20 to 24 hours
Method: as §1, §2

[22] = test system: Enterococcus faecium ATCC 8043; conditions: organism code II, BHI agar, 35-37 °C, 20 to 24 hours
Method: as §1, §2

[23] = test system: Streptococcus Pheumoniae 5649; conditions: organism code ZZA, BHI agar, 35-37 °C, 20 to 24 hours
Method: as §1, §2

SMILES | minimum inhibitory concentration (MIC) [1] | minimum inhibitory concentration (MIC) [2] | minimum inhibitory concentration (MIC) [3] | minimum inhibitory concentration (MIC) [4] | minimum inhibitory concentration (MIC) [5] | minimum inhibitory concentration (MIC) [6] | minimum inhibitory concentration (MIC) [7] | minimum inhibitory concentration (MIC) [8] | minimum inhibitory concentration (MIC) [9] | minimum inhibitory concentration (MIC) (Escherichia coli DC-2) | minimum inhibitory concentration (MIC) [10] | minimum inhibitory concentration (MIC) [11] | minimum inhibitory concentration (MIC) (Candida albicans CCH 442) | minimum inhibitory concentration (MIC) [12] | minimum inhibitory concentration (MIC) [13] | minimum inhibitory concentration (MIC) [14] | minimum inhibitory concentration (MIC) [15] | minimum inhibitory concentration (MIC) [16] | minimum inhibitory concentration (MIC) (Escherichia coli SS) | minimum inhibitory concentration (MIC) [17] | also measured
CC[C@H]1OC(=O)[C@H](C)[C@@H](O[C@H]2C[C@@](C)(OC)[C@@H](O)[C@H](C)O2)[C@H](C)[C@@H](O[C@@H]2O[C@H](C)C[C@H](N(C)C)[C@H]2O)[C@@]2(C)C[C@@H](C)C(=O)[C@H](C)[C@H]3N(CCNC(=O)Cc4ccccc4C=CCO2)C(=O)O[C@]13C [Example 6, Compound of Formula (I), 2'-R^p is H, 4"-R^p is H, m is 2, A is NH, B is -C(O)-(CH2)q-, q is 1, D is 1,2-phenylene, E is-(CH2)r-CH=CH-, r is 0, n is 1] | 0.78 | 0.03 | 0.1 | 0.1 | 0.2 | 12.5 | 0.39 | 12.5 | >128 | >100 | >100 | >100 | >100 | >100 | 0.78 | 1.56 | 0.03 | 0.1 | 3.1 | 1.56 | minimum inhibitory concentration (MIC) (Escherichia coli JUHL): 100; minimum inhibitory concentration (MIC) [18]: 0.39; minimum inhibitory concentration (MIC) [19]: 0.78; minimum inhibitory concentration (MIC) [20]: 0.78; minimum inhibitory concentration (MIC) [21]: 8; minimum inhibitory concentration (MIC) [22]: 0.39; minimum inhibitory concentration (MIC) [23]: 16
CC[C@H]1OC(=O)[C@H](C)[C@@H](O[C@H]2C[C@@](C)(OC)[C@@H](OC(C)=O)[C@H](C)O2)[C@H](C)[C@@H](O[C@@H]2O[C@H](C)C[C@H](N(C)C)[C@H]2O)[C@@]2(C)C[C@@H](C)C(=O)[C@H](C)[C@H]3N(CCNCc4cccc(c4)C=CCO2)C(=O)O[C@]13C [Example 10, Compound of Formula (I), 2'-R^p is H, 4"-R^p is acetyl, m is 2, A is NH, B is-(CH2)q-, q is 1, D is 1,3-phenylene, E is-(CH2)r-CH=CH-, r is 0, n is 1] | 6.2 | 0.12 | 0.39 | 0.39 | 0.78 | 25 | 0.39 | 6.2 | 64 | >100 | 100 | 25 | >100 | 100 | 6.2 | 6.2 | 0.25 | 0.39 | 6.2 | 6.2 | minimum inhibitory concentration (MIC) (Escherichia coli JUHL): >100; minimum inhibitory concentration (MIC) [18]: 1.56; minimum inhibitory concentration (MIC) [19]: 1.56; minimum inhibitory concentration (MIC) [20]: 6.2; minimum inhibitory concentration (MIC) [21]: 64; minimum inhibitory concentration (MIC) [22]: 0.78; minimum inhibitory concentration (MIC) [23]: 8
CC[C@H]1OC(=O)[C@H](C)C(=O)[C@H](C)[C@@H](O[C@@H]2O[C@H](C)C[C@H](N(C)C)[C@H]2O)[C@@]2(C)C[C@@H](C)C(=O)[C@H](C)[C@H]3N(CCOCc4ccccc4C=CCO2)C(=O)O[C@]13C [Example 12, Compound of Formula (II), R^p is H, m is 2, A is -O-, B is-(CH2)q-, q is 1, D is 1,2-phenylene, E is-(CH2)r-CH=CH-, r is 0, n is 1] | 0.78 | 0.25 | 0.05 | 0.1 | 0.05 | 0.78 | 0.78 | 0.39 | 128 | >100 | >100 | 50 | >100 | >100 | 0.78 | 0.78 | 0.125 | 0.2 | 1.56 | 0.78 | minimum inhibitory concentration (MIC) (Escherichia coli JUHL): >100; minimum inhibitory concentration (MIC) [18]: 0.78; minimum inhibitory concentration (MIC) [19]: 0.39; minimum inhibitory concentration (MIC) [20]: 0.78; minimum inhibitory concentration (MIC) [21]: 16; minimum inhibitory concentration (MIC) [22]: 0.1; minimum inhibitory concentration (MIC) [23]: 1
